{
  "source": "patent US4603142A",
  "about": "“Cholesterol lowering method of use” (Wisconsin Alumni Research Foundation, priority 1984, dated 1986)",
  "key": {"[1]": {"assay": "Serum lipids in 13-week-old WLH male chickens", "type": "in vivo, chicken", "conditions": "20 ppm in corn diet, fed four weeks", "from_the_text": "(§1) These responses were attributed to the presence in the small grains of relatively high concentrations of beta-D-glucans and pentosans. A long-standing interest in lipid metabolism prompted us to examine certain lipogenic and cholesterolgenic enzymes in the tissues of these birds. Methods used for handling blood samples, preparing subcellular fractions of liver and assay procedures for beta-hydroxy-beta-methylglutaryl coenzyme A (HMG Co-A) reductase, fatty acid synthetase (FAS), plasma cholesterol and triglycerides and the statistical treatment of the data have been described [Qureshi AA et al. (1980): Regulation of lipid metabolism in chicken livers by dietary cereals, J Nutr 110:388-393].\n(§2) Cholesterol inhibitor I was re-chromatographed by HPLC and the UV absorption spectrum obtained. Maximum absorption occurred at 292 nm. This purified fraction was used for high resolution mass spectrometric analysis. Several scans were made using ionization temperatures from 90-180 degrees Centigrade to increase the possibility of detecting impurities. The high resolution mass spectrometric analysis and measurements of different peaks gave a molecular ion peak at m/e 424 and main peaks at m/e 385, 205 and 165 corresponding to C29 H44 O2 (molecular formula) C25 H36 O2, C13 H17 O2 and C10 H13 O2 moieties, respectively, which are characteristic fragmentation moieties for d-alpha-tocotrienol. Lemon grass oil is a rich source of d-alpha-tocotrienol. This product and cholesterol inhibitor I at 20 ppm were compared with the petroleum ether soluble fraction of HPBF (20% equivalent HPBF) in a group of older male White Leghorn chickens (Table 3). The results shown on Table 3 confirm those previously recorded for petroleum ether solubles of HPBF and cholestrol inhibitor I. In a final experiment, the effects of cholestrol inhibitor I and lemon grass oil on hepatocyte HMG Co-A reductase and FAS activities were tested. Both components tested in the concentration range 5-100 microgram/ml, produced a concentration-dependent suppression of HMG Co-A reductase and concentration-dependent enhancement of FAS activity (Table 4).\n^1 Feeding period was four weeks; Time of killing was 0800; Data\nexpressed as mean ± SD; N = 8 chickens per group; HMGCoA reductase ="}, "Fatty Acid Synthetase": {"system": "Fatty Acid Synthetase", "assay": "In vitro fatty acid synthetase activity in isolated hepatocytes of chicken", "type": "cell-based", "conditions": "incubation 15 minutes; for Fatty Acid Synthetase: means of two replicates", "from_the_text": "These observed effects on lipogensis and cholesterogenesis could be attributed to the chemical constituents of HPBF, but clearly could not be attributed to the water insoluble plant fibers because they were not present in the latter feeding trials. Moreover, these effects were also obtained in vitro using isolated hepatocytes from chickens and rats. […] Proc. 42:1973 (Abstr.)]. Conditions for the in vitro evaluation of the solvent extracts have been described [Qureshi AA et al. (1983): Inhibition of cholesterol and fatty acid biosynthesis in liver enzymes and chicken hepatocytes by polar fractions of garlic, Lipids 18:343-348].\nas §2\n^1 Tenweek-old female chickens were fed standard cornsoy diet. They\nwere fasted for 48 hrs. and refed 72 hrs. prior to the preparation of\n^2 Incubation period was 15 minutes. Values represent means of two\nreplicates within incubation set.\n^4 nmoles of NADPH oxidized per minute per mg of cytosolic fraction."}, "FAS": {"target": "T1, FAS (Gallus gallus, UniProt P12276)", "T1 construct": "activity in isolated hepatocytes; endogenous in cells; host or cells: isolated hepatocytes", "T1 sequence (P12276 2-2512 limits assumed)": "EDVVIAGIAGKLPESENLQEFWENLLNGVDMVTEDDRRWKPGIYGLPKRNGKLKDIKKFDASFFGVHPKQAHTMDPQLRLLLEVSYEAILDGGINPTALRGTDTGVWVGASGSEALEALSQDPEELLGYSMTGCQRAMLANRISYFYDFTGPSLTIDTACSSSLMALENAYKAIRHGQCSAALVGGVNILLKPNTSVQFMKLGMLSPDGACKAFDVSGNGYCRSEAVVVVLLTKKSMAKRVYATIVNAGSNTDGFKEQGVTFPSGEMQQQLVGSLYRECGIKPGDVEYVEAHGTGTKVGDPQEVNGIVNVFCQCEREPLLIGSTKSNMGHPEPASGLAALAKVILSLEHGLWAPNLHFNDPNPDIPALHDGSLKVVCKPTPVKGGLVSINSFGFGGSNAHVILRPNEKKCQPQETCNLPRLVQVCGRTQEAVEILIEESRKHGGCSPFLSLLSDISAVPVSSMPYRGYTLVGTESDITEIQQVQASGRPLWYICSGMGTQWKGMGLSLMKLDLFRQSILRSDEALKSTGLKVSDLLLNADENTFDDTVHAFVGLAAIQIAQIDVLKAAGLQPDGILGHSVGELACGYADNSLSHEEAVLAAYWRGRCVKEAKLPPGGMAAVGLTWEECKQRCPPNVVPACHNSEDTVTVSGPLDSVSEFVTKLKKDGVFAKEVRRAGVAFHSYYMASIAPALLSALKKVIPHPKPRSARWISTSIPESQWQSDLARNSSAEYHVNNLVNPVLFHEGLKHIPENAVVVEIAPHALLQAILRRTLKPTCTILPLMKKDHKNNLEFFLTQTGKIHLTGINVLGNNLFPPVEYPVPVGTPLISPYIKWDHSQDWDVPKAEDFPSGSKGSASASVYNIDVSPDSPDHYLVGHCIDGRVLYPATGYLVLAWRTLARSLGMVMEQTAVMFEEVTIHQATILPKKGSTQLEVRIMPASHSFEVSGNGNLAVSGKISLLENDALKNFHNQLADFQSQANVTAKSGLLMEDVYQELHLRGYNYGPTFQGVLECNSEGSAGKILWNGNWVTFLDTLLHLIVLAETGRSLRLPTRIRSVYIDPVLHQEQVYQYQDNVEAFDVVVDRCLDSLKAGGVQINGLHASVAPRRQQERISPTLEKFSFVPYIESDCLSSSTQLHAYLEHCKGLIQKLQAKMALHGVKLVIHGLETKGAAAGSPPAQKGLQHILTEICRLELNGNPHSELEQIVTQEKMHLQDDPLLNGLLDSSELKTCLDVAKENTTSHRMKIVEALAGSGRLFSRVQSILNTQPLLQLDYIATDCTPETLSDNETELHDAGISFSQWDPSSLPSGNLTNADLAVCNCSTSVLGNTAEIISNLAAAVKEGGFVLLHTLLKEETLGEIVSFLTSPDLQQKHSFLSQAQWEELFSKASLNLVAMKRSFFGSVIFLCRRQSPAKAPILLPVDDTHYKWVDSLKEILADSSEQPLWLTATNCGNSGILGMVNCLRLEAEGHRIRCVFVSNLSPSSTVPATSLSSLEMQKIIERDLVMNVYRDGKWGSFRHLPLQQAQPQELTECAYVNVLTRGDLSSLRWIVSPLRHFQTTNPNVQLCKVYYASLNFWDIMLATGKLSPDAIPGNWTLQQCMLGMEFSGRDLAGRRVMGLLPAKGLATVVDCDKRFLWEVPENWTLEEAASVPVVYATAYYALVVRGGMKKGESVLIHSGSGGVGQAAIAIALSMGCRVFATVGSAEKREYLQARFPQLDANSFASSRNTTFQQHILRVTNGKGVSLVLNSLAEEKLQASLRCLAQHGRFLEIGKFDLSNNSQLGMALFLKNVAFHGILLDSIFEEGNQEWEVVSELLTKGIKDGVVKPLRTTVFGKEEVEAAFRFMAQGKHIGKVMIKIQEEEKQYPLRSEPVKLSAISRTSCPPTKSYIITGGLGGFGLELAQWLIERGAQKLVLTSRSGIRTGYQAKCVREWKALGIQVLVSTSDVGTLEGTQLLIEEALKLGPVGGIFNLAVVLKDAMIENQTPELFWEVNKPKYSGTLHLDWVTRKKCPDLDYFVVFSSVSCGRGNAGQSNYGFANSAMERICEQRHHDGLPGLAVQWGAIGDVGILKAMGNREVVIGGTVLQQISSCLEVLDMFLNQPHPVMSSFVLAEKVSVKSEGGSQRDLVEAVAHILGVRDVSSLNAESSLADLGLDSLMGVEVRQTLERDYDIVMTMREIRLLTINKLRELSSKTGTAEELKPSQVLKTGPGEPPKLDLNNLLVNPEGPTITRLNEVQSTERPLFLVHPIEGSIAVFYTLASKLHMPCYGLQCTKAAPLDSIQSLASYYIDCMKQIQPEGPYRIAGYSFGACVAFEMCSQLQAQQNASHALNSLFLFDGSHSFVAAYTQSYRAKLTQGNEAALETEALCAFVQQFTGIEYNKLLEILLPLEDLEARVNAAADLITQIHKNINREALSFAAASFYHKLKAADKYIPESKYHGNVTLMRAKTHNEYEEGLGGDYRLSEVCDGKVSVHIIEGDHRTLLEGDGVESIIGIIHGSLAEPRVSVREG", "assay": "HPLC fractions checked in vitro for effect on FAS in isolated hepatocytes", "type": "cell-based", "conditions": "HPLC fractions of petroleum ether solubles"}, "[2]": {"assay": "Animal tests of pure d-α-tocotrienol: blood cholesterol and side effects", "type": "in vivo", "conditions": "test animals", "from_the_text": "We have isolated pure d-α-tocotrienol from barley. […] In addition to being extractable from natural sources, including barley and lemon grass oil, d-α-tocotrienol can be synthesized using available technology similar to that which has been used in the synthesis of Vitamin E and more recently as described by S. Urano et al. (J. Chem. Pharm. Bull. 31, 4341 (1983))."}, "HMG-CoA reductase": {"target": "T2, HMG-CoA reductase (Homo sapiens, UniProt P04035)", "T2 sequence (P04035 1-888)": "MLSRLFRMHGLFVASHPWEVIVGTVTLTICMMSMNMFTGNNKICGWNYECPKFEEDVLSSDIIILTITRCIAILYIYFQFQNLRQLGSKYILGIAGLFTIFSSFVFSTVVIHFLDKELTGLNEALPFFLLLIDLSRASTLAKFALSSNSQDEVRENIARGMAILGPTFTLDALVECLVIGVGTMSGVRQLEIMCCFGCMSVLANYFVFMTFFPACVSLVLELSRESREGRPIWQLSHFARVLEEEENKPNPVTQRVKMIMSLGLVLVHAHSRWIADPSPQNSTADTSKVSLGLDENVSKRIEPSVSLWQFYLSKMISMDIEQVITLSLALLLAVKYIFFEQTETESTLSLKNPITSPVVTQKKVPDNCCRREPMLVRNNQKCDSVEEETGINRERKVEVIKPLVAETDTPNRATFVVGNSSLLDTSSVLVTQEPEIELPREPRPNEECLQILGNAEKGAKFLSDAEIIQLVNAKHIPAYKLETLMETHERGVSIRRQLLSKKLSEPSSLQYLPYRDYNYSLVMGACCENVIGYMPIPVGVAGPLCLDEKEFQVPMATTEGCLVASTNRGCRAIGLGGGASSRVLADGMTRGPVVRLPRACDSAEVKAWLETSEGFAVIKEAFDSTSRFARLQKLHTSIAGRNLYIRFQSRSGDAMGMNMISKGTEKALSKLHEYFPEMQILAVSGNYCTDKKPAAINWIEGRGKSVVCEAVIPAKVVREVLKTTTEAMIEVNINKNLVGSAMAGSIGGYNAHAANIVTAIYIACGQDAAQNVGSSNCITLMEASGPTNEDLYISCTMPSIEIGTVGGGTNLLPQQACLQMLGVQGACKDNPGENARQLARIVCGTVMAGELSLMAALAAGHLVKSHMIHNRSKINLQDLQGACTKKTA", "assay": "Hepatic HMG-CoA reductase activity in 13-week-old WLH male chickens", "type": "in vivo, chicken", "design": "preparing subcellular fractions of liver and assay procedures for beta-hydroxy-beta-methylglutaryl coenzyme A (HMG Co-A) reductase; from tissue; host or cells: chicken liver (microsomal fraction)", "conditions": "20 ppm in corn diet, fed four weeks, liver", "from_the_text": "as §1\nCholesterol inhibitor I was re-chromatographed by HPLC and the UV absorption spectrum obtained. Maximum absorption occurred at 292 nm. This purified fraction was used for high resolution mass spectrometric analysis. Several scans were made using ionization temperatures from 90-180 degrees Centigrade to increase the possibility of detecting impurities. […] The results shown on Table 3 confirm those previously recorded for petroleum ether solubles of HPBF and cholestrol inhibitor I. In a final experiment, the effects of cholestrol inhibitor I and lemon grass oil on hepatocyte HMG Co-A reductase and FAS activities were tested. […]\nexpressed as mean ± SD; N = 8 chickens per group; HMGCoA reductase = […]"}},
  "data": [
    {"molecule": "CC(C)=CCC/C(C)=C/CC/C(C)=C/CC[C@]1(C)CCc2c(C)c(O)c(C)c(C)c2O1", "note": "[Cholesterol inhibitor I, 2,5,7,8-tetramethyl-2 (4,8, 12-trimethyltrideca-3,7, 11-trienyl)chroman-6-ol]", "values": [
      {"measurement": "Concentration in Serum LDL-Chol., percentage of control", "setting": "[1]", "result": "66 Percentage of respective contr"},
      {"measurement": "Concentration in Serum HDL-Chol.", "setting": "[1]; mean ± SD, N = 8", "result": "58 ± 3", "unit": "mg/100 ml"},
      {"measurement": "Concentration in Serum LDL-Chol.", "setting": "[1]; mean ± SD, N = 8", "result": "44 ± 3", "unit": "mg/100 ml"},
      {"measurement": "Concentration in Serum Total Cholesterol", "setting": "[1]; mean ± SD, N = 8", "result": 103, "unit": "mg/100 ml"},
      {"measurement": "Fatty Acid Synthetase, percentage of control", "setting": "Fatty Acid Synthetase; 5 μg/ml", "result": "122 Percentage of respective contr"},
      {"measurement": "Fatty Acid Synthetase", "setting": "Fatty Acid Synthetase; 5 μg/ml", "result": "88 nmoles of NADPH oxidized per m"},
      {"measurement": "Fatty Acid Synthetase, percentage of control", "setting": "Fatty Acid Synthetase; 10 μg/ml", "result": "135 Percentage of respective contr"},
      {"measurement": "Fatty Acid Synthetase", "setting": "Fatty Acid Synthetase; 10 μg/ml", "result": "97 nmoles of NADPH oxidized per m"},
      {"measurement": "Fatty Acid Synthetase, percentage of control", "setting": "Fatty Acid Synthetase; 15 μg/ml", "result": "156 Percentage of respective contr"},
      {"measurement": "Fatty Acid Synthetase", "setting": "Fatty Acid Synthetase; 15 μg/ml", "result": "112 nmoles of NADPH oxidized per m"},
      {"measurement": "Fatty Acid Synthetase, percentage of control", "setting": "Fatty Acid Synthetase; 20 μg/ml", "result": "175 Percentage of respective contr"},
      {"measurement": "Fatty Acid Synthetase", "setting": "Fatty Acid Synthetase; 20 μg/ml", "result": "126 nmoles of NADPH oxidized per m"},
      {"measurement": "Fatty Acid Synthetase, percentage of control", "setting": "Fatty Acid Synthetase; 25 μg/ml", "result": "188 Percentage of respective contr"},
      {"measurement": "Fatty Acid Synthetase", "setting": "Fatty Acid Synthetase; 25 μg/ml", "result": "135 nmoles of NADPH oxidized per m"},
      {"measurement": "Fatty Acid Synthetase, percentage of control", "setting": "Fatty Acid Synthetase; 50 μg/ml", "result": "188 Percentage of respective contr"},
      {"measurement": "Fatty Acid Synthetase", "setting": "Fatty Acid Synthetase; 50 μg/ml", "result": "148 nmoles of NADPH oxidized per m"},
      {"measurement": "Fatty Acid Synthetase, percentage of control", "setting": "Fatty Acid Synthetase; 100 μg/ml", "result": "214 Percentage of respective contr"},
      {"measurement": "Fatty Acid Synthetase", "setting": "Fatty Acid Synthetase; 100 μg/ml", "result": "154 nmoles of NADPH oxidized per m"},
      {"measurement": "Effect on activities of FAS", "setting": "FAS", "result": "significant increase"},
      {"measurement": "Effect on high density lipoprotein cholesterol levels", "setting": "[2]", "result": "no significant effect"},
      {"measurement": "Side effects", "setting": "[2]", "result": "no undesirable side effects"},
      {"measurement": "Effect on total and low density lipoprotein cholesterol", "setting": "[2]; even in low concentrations", "result": "lower concentrations of total and low density lipoprotein cholesterol"},
      {"measurement": "HMG-CoA Reductase, percentage of control", "setting": "HMG-CoA reductase", "result": "63 Percentage of respective contr"},
      {"measurement": "HMG-CoA Reductase", "setting": "HMG-CoA reductase; mean ± SD, N = 8", "result": "305 ± 18 pmoles of mevalonic acid synth"}
    ]}
  ]
}
